In patent publication US20250154611A1, “SYSTEMS AND METHODS TO DETECT STEM CELL STRESS AND USES THEREOF” (Wayne State University, priority 2014, published 2025):

Legend:
Assay type in all cases: cell-based, mouse
TSCs = assay: qPCR of terminal differentiation markers in TSCs with or without 100 mM sorbitol; details: 0.5% O2, 7 days
Description: . TSCs were cultured in 0-20% O2 for 0-7 days±FGF4 as indicated, rapidly frozen, and assayed for free ATP (n=4). (FIG. 6B) At 7 days, FGF4 absence increased terminal differentiation markers 8-20 fold at 20% O2, but lower differentiation levels at 0.5% O2 were not increased by a sorbitol dose, which induces high levels of differentiation at 20% O2. TSCs were cultured for 7 days±FGF4 at 20% or 0.5% O2±100 mM sorbitol. mRNA was purified and reverse transcribed, then analyzed for relative amounts of 3 terminal differentiation markers that were normalized to housekeeping mRNAs. Triplicate experiments are shown, with mean±s.e.m. (error bars). […]. (FIG. 6D) Correspondingly, at 7 days, mitochondrial Δψm increased only at O2≥2% with FGF4 removal. TSCs were cultured for 7 days at 20% O2 (a,d), 2% O2 (b,e), or 0.5% O2 (c,f) with FGF4 (a-c) or without FGF4 (d-f) and stained with JC1. Micron bar in micrograph (a) indicates […]. Green fluorescence indicates monomeric stain and low membrane charge and red fluorescence indicates polymeric stain and high charge. For original color fluorescence figures see (Xie, Stem Cell Research, 13:478, 2014 (Xie, 2014)).
RNA isolation and quantitative reverse transcription-PCR (qRT-PCR). […] Briefly, DNase-treated total RNA was isolated following cDNA preparation using QuantiTect Reverse Transcription Kit […] (Qiagen). […]

MEK1/2 = assay: phospho-MEK1/2 western blot in mESCs under 200 mM sorbitol; details: returned to baseline by 20 min
Excerpt: FIG. 14. […] Blots are representative of triplicate experiments. Phospho-proteins and their loading controls are grouped between black lines.
Hyperosmotic activation of signaling enzymes. […] Zhong, 2010; Xie, 2011. After screening 21 signaling kinases in 11 subfamilies using 14 inhibitors, 5 kinases in the mitogen activated protein kinase (MAPK) and PI3K families were identified as producing differentiation-priming effects in hyperosmotic conditions. To determine the kinetics of activation of these five kinases in the described system, mESCs were treated with 200 mM sorbitol for 1 hr. Expression levels of the activated (i.e., phosphorylated) enzymes were assayed by western blot analysis (FIG. 14), including phospho-p38MAPK, phospho-JNK, phospho-MEK1/2, and phospho-AKT (the downstream effector of PI3K signaling). Activated p38MAPK was 1st detected at 10 min of stimulation; activation persisted throughout 1 hr of stimulation. Similarly, activated JNK was 1st detected at 20 min of stimulation, and persisted throughout 1 hr of stimulation. Activated MEK1/2 and activated AKT were present endogenously at low levels at time zero; sorbitol stimulated higher activation levels of each.

Rex1-RFP mESCs = assay: Flow cytometry of Rex1-RFP reporter mESCs (bright, intermediate, dim subpopulations); details: 3 days; for Bright subpopulation / Dim subpopulation / Intermediate + Dim / Intermediate subpopulation: LIF+
Description: . Rex1-RFP mESCs expressing Rex1 promoter reporter were cultured in 12-well plates until 30% confluent, treated with 0 mM, 200 mM, and 300 mM sorbitol for 3 days, trypsinized, and cell suspensions were assayed by flow cytometry. Arbitrary thresholds (vertical red lines) were drawn at 5×10^3 on the X-axis between the middle of the two peaks and at 2 standard deviations above the mean of the parental (before infection) dim population shown in the bottom panel. Areas in parental dim, intermediate dim, and bright were defined by the 2 vertical red lines and were quantified as pixels using Image J from data in (FIG. 25A) to give histograms in (FIG. 25B).
FIGS. 26A and 26B. Viable Rex1 promoter reporter responds with stress treatment in a dose-dependent manner in flow cytometry assay. mESCs expressing Rex1 promoter reporter were cultured in 12-well plates till 30% confluence. Cells were then treated with 200-300 mM of sorbitol in 25 mM increments for 3 days. After trypsinization, the cell suspensions were subjected for flow cytometry assay. An arbitrary threshold was drawn at 5×10^3 on the x-axis and another near the low point between the bright peak and the dimmer peak to its left (FIG. 26A). […] Intermediate and bright groups were also defined by the two vertical red lines. Area sizes of the two peaks were quantified using Image J. The histogram bars (FIG. 26B) are derived by three independent experiments, one of which is shown in (FIG. 26A), errors bars showing s.e.m., One-way ANOVA was performed followed by Dunnett's post hoc test using 0 mM as reference for parental dim, intermediate dim, and bright separately.
Flow cytometric analysis of mESCs expressing pluripotency reporters. Fluorescence determination by the plate reader reported an averaged biochemical result from a population of cells inside the tissue culture vessel. […] This time point was designated as time zero. The cells were then treated with different sorbitol concentrations for 1-3 days. At each time point, cells were trypsinized and re-suspended in ice-cold D-PBS for flow cytometry assay using an LSR Fortessa flow cytometer (BD biosciences) and the FACS Diva Software version 7.0 (BD biosciences). Non-stressed mESCs that express Oct4-copGFP and/or Rex1-mApple and the non-modified, parental mESCs were used to set up the parameters that define the fluorescent cells and non-fluorescent cells.
From the histogram of FACS, two peaks are seen. The right peak represents the bright fluorescent potent ESCs. The left peak represents the dim fluorescent non-potent ESCs. An arbitrary vertical line is drawn here at the 5×10^3 position on the PE-A axis to separate the low potency ESCs. The peak areas were calculated using Image J by counting the area pixels.

SMILES: OC[C@@H](O)[C@@H](O)[C@H](O)[C@@H](O)CO [sorbitol]
- mRNA expression of terminal differentiation markers PL1, Plf, synTa (TSCs): did not increase
- time of increased MEK1/2 activation (MEK1/2): ≤ 10 min
- decrease in high activity Rex1 subpopulation (Rex1-RFP mESCs; 0 to 300 mM): 20%
- decrease in the bright group (Rex1-RFP mESCs; 0 to 300 mM): 21.5%
- increase in parental dim ESCs (Rex1-RFP mESCs; 0 to 300 mM): 15.8%
- increase in the low Rex1 activity subpopulation (Rex1-RFP mESCs; 0 to 300 mM): 2.8 fold
- total change toward intensity decrease (Rex1-RFP mESCs; 0 to 300 mM): 40.4 % of cells
- Bright subpopulation (Rex1-RFP mESCs; 200 mM): 77.1%
- Dim subpopulation (Rex1-RFP mESCs; 200 mM): 12.2%
- Intermediate + Dim (Rex1-RFP mESCs; 200 mM): 22.9%
- Intermediate subpopulation (Rex1-RFP mESCs; 200 mM): 10.7%
- Bright subpopulation (Rex1-RFP mESCs; 225 mM): 75.6%
- Dim subpopulation (Rex1-RFP mESCs; 225 mM): 13.7%
- Intermediate + Dim (Rex1-RFP mESCs; 225 mM): 24.4%
- Intermediate subpopulation (Rex1-RFP mESCs; 225 mM): 10.7%
- Bright subpopulation (Rex1-RFP mESCs; 250 mM): 72%
- Dim subpopulation (Rex1-RFP mESCs; 250 mM): 16.6%
- Intermediate + Dim (Rex1-RFP mESCs; 250 mM): 28%
- Intermediate subpopulation (Rex1-RFP mESCs; 250 mM): 11.4%
- Bright subpopulation (Rex1-RFP mESCs; 275 mM): 71.9%
- Dim subpopulation (Rex1-RFP mESCs; 275 mM): 17.1%
- Intermediate + Dim (Rex1-RFP mESCs; 275 mM): 28.1%
- Intermediate subpopulation (Rex1-RFP mESCs; 275 mM): 11%
- Bright subpopulation (Rex1-RFP mESCs; 300 mM): 61.8+/−3.7%
- Dim subpopulation (Rex1-RFP mESCs; 300 mM): 24.4+/−2.9%
- Intermediate + Dim (Rex1-RFP mESCs; 300 mM): 28.1%
- Intermediate subpopulation (Rex1-RFP mESCs; 300 mM): 13.8+/−2.1%
- Bright subpopulation (Rex1-RFP mESCs; 300 mM, listed as Sorbitol): 61.8%
- Dim subpopulation (Rex1-RFP mESCs; 300 mM, listed as Sorbitol): 24.4%
- Intermediate subpopulation (Rex1-RFP mESCs; 300 mM, listed as Sorbitol): 13.8%
- increase in intermediate dim ESCs (Rex1-RFP mESCs; to 300 mM): 3.1%
